Holding throughout (type): functional
What all share (conditions): read-out: GI

Test [1] deals with Chenopodium ficifolium. In words: Phytotoxicity against Chenopodium ficifolium germinated seed assessed as growth inhibition at 10 mg/L after 72 hr by culture dish method.
Test [2] concerns Chenopodium ficifolium. The test is described as follows: Phytotoxicity against Chenopodium ficifolium germinated seed assessed as growth inhibition at 100 mg/L after 72 hr by culture dish method.
In test [3] the test system is Brassica napus. In words: Phytotoxicity against Brassica napus (oilseed rape) germinated seed assessed as growth inhibition at 10 mg/L after 72 hr by culture dish method.
For test [4], the system named is Brassica napus. In words: Phytotoxicity against Brassica napus (oilseed rape) germinated seed assessed as growth inhibition at 100 mg/L after 72 hr by culture dish method.
The subject of test [5] is Digitaria ciliaris. In words: Phytotoxicity against Digitaria ciliaris germinated seed assessed as growth inhibition at 10 mg/L after 72 hr by culture dish method.
Test [6] deals with Digitaria ciliaris. In words: Phytotoxicity against Digitaria ciliaris germinated seed assessed as growth inhibition at 100 mg/L after 72 hr by culture dish method.
For test [7], the system named is Echinochloa crus-galli. In words: Phytotoxicity against Echinochloa crus-galli (barnyard grass) germinated seed assessed as growth inhibition at 10 mg/L after 72 hr by culture dish method.
Test [8] deals with Echinochloa crus-galli. In words: Phytotoxicity against Echinochloa crus-galli (barnyard grass) germinated seed assessed as growth inhibition at 100 mg/L after 72 hr by culture dish method.

Take `COc1cc(C)nc(NC(=S)NC(=O)c2c(-c3ccc(Cl)cc3Cl)noc2C)n1`: the inhibition of growth at 10 µg/mL in test [1] came out at 15.3%; in test [3] it was 15.7%; in test [5], 30.2%; in test [7], 12.3%. Further, the inhibition of growth at 100 µg/mL in test [2] was found to be 59.8%; in test [4] it was 69.3%; in test [6], 60.2%; in test [8] it was 61.8%.

Consider `CSc1cc(C)nc2n/c(=N/C(=O)c3c(-c4ccc(Cl)cc4Cl)noc3C)sn12`, for which the inhibition of growth at 10 µg/mL is 21.9% in test [1], 32.8% in test [3], 26.8% in test [5] and 37.5% in test [7]. The inhibition of growth at 100 µg/mL stood at 75.2% in test [2], 62.8% in test [4], 70.6% in test [6] and 75.4% in test [8].

On to `Cc1cc(C)n2s/c(=N\C(=O)c3c(-c4ccc(Cl)cc4Cl)noc3C)nc2n1`, for which the inhibition of growth at 10 µg/mL in test [1] stood at 26.7%; in test [3], 46.3%; in test [5], 15.2%; in test [7], 25.2%. Further, the inhibition of growth at 100 µg/mL amounted to 76.9% in test [2], 76.8% in test [4], 84.9% in test [6] and 76% in test [8].

As for `COc1cc(Cl)nc(NC(=S)NC(=O)c2c(-c3ccc(Cl)cc3Cl)noc2C)n1`, the inhibition of growth at 10 µg/mL was 21.9% in test [1], 30.7% in test [3], 14.6% in test [5] and 18.5% in test [7]. Besides, the inhibition of growth at 100 µg/mL in test [2] worked out at 53.2%; in test [4], 61%; in test [6], 62.2%; in test [8] it was 56.3%.

`COc1cc(SC)nc(NC(=S)NC(=O)c2c(-c3ccc(Cl)cc3Cl)noc2C)n1`: the inhibition of growth at 10 µg/mL in test [1] is -8.31%; in test [3] it was 18.7%; in test [5], 34.8%; in test [7], 19.3%. The inhibition of growth at 100 µg/mL in test [2] was determined as 60.3%; in test [4], 69.2%; in test [6] it was 55.6%; in test [8] it was 40.9%.

With `COc1cc(OC)nc(NC(=S)NC(=O)c2c(-c3ccc(Cl)cc3Cl)noc2C)n1`, the inhibition of growth at 10 µg/mL in test [1] came out at 30.7%; in test [3], 35.2%; in test [5] it was 32%; in test [7] it was 21.8%. The inhibition of growth at 100 µg/mL is 78.6% in test [2], 70.8% in test [4], 65.9% in test [6] and 60.9% in test [8].

Consider `Cc1cc(C)nc(NC(=S)NC(=O)c2c(-c3ccc(Cl)cc3Cl)noc2C)n1`, for which the inhibition of growth at 10 µg/mL was 16.9% in test [1], 16.1% in test [3], 26.5% in test [5] and 18.5% in test [7]. Besides, the inhibition of growth at 100 µg/mL worked out at 65.4% in test [2], 68% in test [4], 61.4% in test [6] and 64.7% in test [8].

Regarding `CSc1cc(C)nc(NC(=S)NC(=O)c2c(-c3ccc(Cl)cc3Cl)noc2C)n1`, the inhibition of growth at 10 µg/mL in test [1] came out at 32.8%; in test [3], 42.4%; in test [5], 26.7%; in test [7] it was 27.4%. Also, the inhibition of growth at 100 µg/mL in test [2] came out at 86.1%; in test [4], 73.6%; in test [6], 45.5%; in test [8], 47.1%.

With `COc1cc(C)nc2n/c(=N/C(=O)c3c(-c4ccc(Cl)cc4Cl)noc3C)sn12`, the inhibition of growth at 10 µg/mL in test [1] is 45.7%; in test [3] it was 26.4%; in test [5] it was 50.3%; in test [7] it was 30.9%. In addition, the inhibition of growth at 100 µg/mL is 80.4% in test [2], 80.6% in test [4], 80.6% in test [6] and 80.5% in test [8].

On to `COc1cc(OC)n2s/c(=N\C(=O)c3c(-c4ccc(Cl)cc4Cl)noc3C)nc2n1`, for which the inhibition of growth at 10 µg/mL is 28.9% in test [1], 49.3% in test [3], 53.8% in test [5] and 43.2% in test [7]. Further, the inhibition of growth at 100 µg/mL worked out at 82.7% in test [2], 85.6% in test [4], 85.3% in test [6] and 85.6% in test [8].

`COc1cc(SC)nc2n/c(=N/C(=O)c3c(-c4ccc(Cl)cc4Cl)noc3C)sn12`: the inhibition of growth at 10 µg/mL in test [1] stood at 23.8%; in test [3], 27.4%; in test [5], 19.8%; in test [7], 21.4%. In addition, the inhibition of growth at 100 µg/mL came out at 68.3% in test [2], 75.8% in test [4], 79.6% in test [6] and 55.6% in test [8].

As for `Cc1cc(O)nc(NC(=S)NC(=O)c2c(-c3ccc(Cl)cc3Cl)noc2C)n1`, the inhibition of growth at 10 µg/mL in test [1] is -5.86%; in test [3], 6.7%; in test [5], -6.24%; in test [7], -9.78%. In addition, the inhibition of growth at 100 µg/mL in test [2] stood at 46.7%; in test [4], 52.3%; in test [6] it was 49.3%; in test [8], 46.8%.

Consider `CCOC(=O)[C@@H](C)Oc1ccc(Oc2nc3ccc(Cl)cc3o2)cc1` [FENOXAPROP-P-ETHYL], for which the inhibition of growth at 10 µg/mL is 16.8% in test [1], 16.4% in test [3], 35.7% in test [5] and 58.4% in test [7]. The inhibition of growth at 100 µg/mL in test [2] came to 48.7%; in test [4] it was 42.2%; in test [6], 85.6%; in test [8], 71.8%.

On to `Cc1cc(Cl)nc(NC(=S)NC(=O)c2c(-c3ccc(Cl)cc3Cl)noc2C)n1`, for which the inhibition of growth at 10 µg/mL in test [1] was 28.9%; in test [3], 8.36%; in test [5], 10.2%; in test [7], -6.84%. In addition, the inhibition of growth at 100 µg/mL in test [2] turned out to be 48.3%; in test [4], 50.8%; in test [6], 44.2%; in test [8], 48.7%.

In the case of `COc1cc(Cl)nc2n/c(=N/C(=O)c3c(-c4ccc(Cl)cc4Cl)noc3C)sn12`, the inhibition of growth at 10 µg/mL is 19.3% in test [1], 28.6% in test [3], 16.5% in test [5] and 10.8% in test [7]. The inhibition of growth at 100 µg/mL turned out to be 65.9% in test [2], 70.8% in test [4], 72.8% in test [6] and 40.8% in test [8].

Regarding `Cc1onc(-c2ccc(Cl)cc2Cl)c1C(=O)/N=c1/nc2nc(Cl)cc(C)n2s1`, the inhibition of growth at 10 µg/mL turned out to be 18.6% in test [1], 20.1% in test [3], 32.8% in test [5] and 25.8% in test [7]. For the same molecule, the inhibition of growth at 100 µg/mL amounted to 73.6% in test [2], 70.2% in test [4], 68.1% in test [6] and 55.6% in test [8].

Regarding `Cc1cc(O)n2s/c(=N\C(=O)c3c(-c4ccc(Cl)cc4Cl)noc3C)nc2n1`, the inhibition of growth at 10 µg/mL in test [1] came to 32.9%; in test [3] it was 38.5%; in test [5], 30.1%; in test [7], 30.5%. Also, the inhibition of growth at 100 µg/mL in test [2] came out at 59.3%; in test [4] it was 79.2%; in test [6], 72.1%; in test [8], 65.8%.

(Values after ChEMBL document CHEMBL3046114, “Synthesis and phytotoxic activity of novel acylthiourea and 2H-1,2,4-thiadiazolo[2,3-]pyrimidine derivatives” (2012).)
